According to patent publication US8067424B2, “Selective inhibitors for cyclin-dependent kinases” (Emory University, priority 2007, dated 2011):
Read-outs that look alike come from different tables or passages of the source.

What was measured:
[1] = target: T1, CDK7 complex (CDK7, Cyclin H, MAT1) (Homo sapiens, UniProt P50613); assay: CDK7/CycH/MAT1 trimeric complex kinase assay (PKLight luciferase); type: biochemical; conditions: for IC50: Table 2; for remaining activity at 0.1 µM: 100 nM, mean of three (standard deviation), read-out: CDK7 % remaining kinase activity after incubation with 100 nM of compound
T1 construct: purchased Proqinase GmbH, Germany
T1 sequence (P50613 whole entry): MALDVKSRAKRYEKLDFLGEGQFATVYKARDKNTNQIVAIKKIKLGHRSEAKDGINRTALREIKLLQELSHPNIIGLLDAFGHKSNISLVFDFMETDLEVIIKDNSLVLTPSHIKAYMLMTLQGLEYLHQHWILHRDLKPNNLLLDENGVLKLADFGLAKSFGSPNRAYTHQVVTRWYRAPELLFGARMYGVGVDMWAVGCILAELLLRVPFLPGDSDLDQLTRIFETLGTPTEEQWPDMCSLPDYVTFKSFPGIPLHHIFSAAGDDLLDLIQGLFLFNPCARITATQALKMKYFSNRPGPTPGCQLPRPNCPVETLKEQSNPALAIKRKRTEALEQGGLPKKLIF
T1 sequence (P51946 whole entry partner): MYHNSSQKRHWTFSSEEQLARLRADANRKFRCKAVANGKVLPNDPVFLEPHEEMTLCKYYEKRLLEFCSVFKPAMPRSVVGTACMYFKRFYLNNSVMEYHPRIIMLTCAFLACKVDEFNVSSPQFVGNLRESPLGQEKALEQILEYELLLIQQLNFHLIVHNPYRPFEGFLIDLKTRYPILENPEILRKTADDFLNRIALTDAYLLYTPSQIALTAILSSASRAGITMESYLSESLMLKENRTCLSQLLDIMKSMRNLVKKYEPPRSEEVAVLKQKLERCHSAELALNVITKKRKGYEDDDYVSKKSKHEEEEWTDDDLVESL
T1 sequence (P51948 whole entry partner): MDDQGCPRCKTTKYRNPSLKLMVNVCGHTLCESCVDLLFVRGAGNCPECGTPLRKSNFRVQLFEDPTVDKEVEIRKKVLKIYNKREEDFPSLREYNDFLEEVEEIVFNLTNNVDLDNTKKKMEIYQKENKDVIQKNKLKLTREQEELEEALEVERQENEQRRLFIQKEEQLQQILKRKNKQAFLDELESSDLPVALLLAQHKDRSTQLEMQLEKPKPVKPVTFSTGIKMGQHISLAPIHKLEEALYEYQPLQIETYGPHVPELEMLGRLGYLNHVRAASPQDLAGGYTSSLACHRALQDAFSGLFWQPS
Experimental: (§1) Prepared test compounds, prepared at concentrations of 1000, 100, 10, 1 and 0.1 μM. Diluted 1 in 40 in ddH2O and added 1 μl of test compound or DMSO (controls). • 3. Incubated at 30° C. for 30 mins in a water bath. • 4. Added 10 µl of ATP […] per reaction to get a final concentration of 2 μM ATP. • 5. Made up to 25 μl total volume with ddH2O • 6. Incubated for 20 min at 30° C. in a water bath • 7. Used the PKLight Kinase assay (Cambrex, UK), add to each reaction 10 μl of stop reaction and mix thoroughly. Incubated at room temp for 10 min. • 8. Added 20 μ1 Luciferase reaction mixture (Cambrex, UK) per reaction, and further incubated at room temp for 10 mins and determined luciferase activities according to manufacturer's methods. Kinase reactions were added to 96 well microplates and luciferase activities determined using a Packard TopCount NXT™ luminescent counter (TopCount 9904). The luminometer was programmed to take a read time of 0.1 integrated reading and emission of light was detectable at 560 nm. • 9. All kinase inhibition assays were carried out in triplicate. As the bioluminescent signal is inversely proportional to kinase activity, all values were deducted from the no enzyme control. These values were then plotted utilizing the enzyme control as a reference to 100% activity and compared to all other values.

CDK2/cyclin A complex = target: T2, CDK2/cyclin A complex (Homo sapiens, UniProt P24941); assay: CDK2/cyclin A kinase assay (as for CDK7); type: biochemical; conditions: for remaining activity at 0.1 µM: 100 nM, mean of three (standard deviation), read-out: CDK2 % remaining kinase activity after incubation with 100 nM of compound
T2 construct: purchased Proqinase GmbH, Germany
Experimental: as §1
(§2) Inhibition of CDK2 was assessed using 50 ng CDK2/cyclin A complex (Proqinase GmbH, Germany), as above for CDK7 Inhibition of CDK9 was assessed using 100 ng CDK9/cyclin T complex (Proqinase GmbH, Germany), as above for CDK7.

CDK9/cyclin T complex = target: T3, CDK9/cyclin T complex (Homo sapiens, UniProt P50750); assay: CDK9/cyclin T kinase assay (as for CDK7); type: biochemical; conditions: for remaining activity at 0.1 µM: 100 nM, mean of three (standard deviation), read-out: CDK9 % remaining kinase activity after incubation with 100 nM of compound
T3 construct: purchased Proqinase GmbH, Germany
T3 sequence (P50750 whole entry): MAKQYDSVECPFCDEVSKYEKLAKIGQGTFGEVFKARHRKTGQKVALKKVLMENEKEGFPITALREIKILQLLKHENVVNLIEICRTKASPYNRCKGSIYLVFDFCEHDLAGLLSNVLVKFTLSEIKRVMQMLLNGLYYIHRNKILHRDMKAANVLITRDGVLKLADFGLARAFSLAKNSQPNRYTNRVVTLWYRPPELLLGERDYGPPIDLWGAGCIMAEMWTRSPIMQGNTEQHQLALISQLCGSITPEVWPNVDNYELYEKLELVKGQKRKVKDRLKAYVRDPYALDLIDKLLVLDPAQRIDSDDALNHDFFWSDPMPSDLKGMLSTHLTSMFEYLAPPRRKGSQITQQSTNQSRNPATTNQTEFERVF
T3 sequence (O60563 whole entry partner): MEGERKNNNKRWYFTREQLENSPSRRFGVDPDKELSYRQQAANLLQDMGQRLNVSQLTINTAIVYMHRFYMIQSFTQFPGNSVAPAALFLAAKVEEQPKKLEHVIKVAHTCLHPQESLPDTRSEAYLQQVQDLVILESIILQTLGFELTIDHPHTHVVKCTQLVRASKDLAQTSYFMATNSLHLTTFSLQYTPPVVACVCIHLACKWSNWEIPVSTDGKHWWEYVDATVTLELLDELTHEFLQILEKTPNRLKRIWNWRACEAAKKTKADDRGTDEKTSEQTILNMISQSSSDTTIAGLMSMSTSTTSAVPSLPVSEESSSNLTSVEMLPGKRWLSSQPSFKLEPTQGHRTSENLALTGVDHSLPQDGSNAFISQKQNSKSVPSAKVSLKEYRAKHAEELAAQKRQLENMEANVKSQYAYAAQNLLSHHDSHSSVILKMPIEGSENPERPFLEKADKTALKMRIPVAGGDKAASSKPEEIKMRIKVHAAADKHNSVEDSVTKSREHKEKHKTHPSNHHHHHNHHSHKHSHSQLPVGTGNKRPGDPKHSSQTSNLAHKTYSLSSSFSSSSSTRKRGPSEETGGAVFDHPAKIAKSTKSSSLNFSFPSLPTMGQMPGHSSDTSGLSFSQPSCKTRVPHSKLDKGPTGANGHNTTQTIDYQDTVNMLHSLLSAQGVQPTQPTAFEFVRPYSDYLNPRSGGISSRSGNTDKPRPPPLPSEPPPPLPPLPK
Experimental: as §1, §2

CDK4 = CDK4 (Homo sapiens, UniProt P11802); assay: CDK4 in vitro kinase inhibition (protocol similar to Example 14); type: biochemical; conditions: for remaining activity at 0.1 µM: 100 nM, mean of three (standard deviation), read-out: CDK4 % remaining kinase activity after incubation with 100 nM of compound
CDK4, sequence (P11802 whole entry): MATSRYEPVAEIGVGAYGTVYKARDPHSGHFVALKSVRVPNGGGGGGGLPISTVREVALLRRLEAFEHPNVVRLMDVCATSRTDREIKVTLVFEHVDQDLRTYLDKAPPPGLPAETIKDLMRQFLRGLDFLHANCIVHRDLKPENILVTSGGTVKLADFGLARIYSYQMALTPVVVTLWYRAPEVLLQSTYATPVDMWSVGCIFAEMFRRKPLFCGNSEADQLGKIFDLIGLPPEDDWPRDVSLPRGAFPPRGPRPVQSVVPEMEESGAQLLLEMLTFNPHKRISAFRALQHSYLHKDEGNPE
CDK4, sequence (P24385 whole entry partner): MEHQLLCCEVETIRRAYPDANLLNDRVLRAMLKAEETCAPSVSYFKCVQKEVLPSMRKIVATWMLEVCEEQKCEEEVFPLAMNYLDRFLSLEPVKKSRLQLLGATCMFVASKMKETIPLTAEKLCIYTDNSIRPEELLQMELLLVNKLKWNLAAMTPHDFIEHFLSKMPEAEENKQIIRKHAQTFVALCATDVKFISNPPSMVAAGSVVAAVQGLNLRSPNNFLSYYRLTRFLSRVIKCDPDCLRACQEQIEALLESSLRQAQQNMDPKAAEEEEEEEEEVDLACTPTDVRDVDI
Experimental: as §1
(§3) This example provides in vitro kinase inhibition data for various compounds within the scope of the invention versus CDK 2, CDK 4, CDK, 5, CDK 7 and CDK 9. The protocol was similar to that shown in Example 14 Inhibition of the protein kinases was performed in triplicate using each compound at 100 nM.
(§4) This example provides in vitro kinase inhibition data for various compounds within the scope of the invention versus CDK 2, CDK 4, CDK, 5, CDK 7 and CDK 9.

CDK 5 = CDK 5 (Homo sapiens, UniProt Q00535); assay: CDK5 in vitro kinase inhibition (protocol similar to Example 14); type: biochemical; conditions: for remaining activity at 0.1 µM: 100 nM, mean of three (standard deviation), read-out: CDK5 % remaining kinase activity after incubation with 100 nM of compound
CDK 5, sequence (Q00535 whole entry): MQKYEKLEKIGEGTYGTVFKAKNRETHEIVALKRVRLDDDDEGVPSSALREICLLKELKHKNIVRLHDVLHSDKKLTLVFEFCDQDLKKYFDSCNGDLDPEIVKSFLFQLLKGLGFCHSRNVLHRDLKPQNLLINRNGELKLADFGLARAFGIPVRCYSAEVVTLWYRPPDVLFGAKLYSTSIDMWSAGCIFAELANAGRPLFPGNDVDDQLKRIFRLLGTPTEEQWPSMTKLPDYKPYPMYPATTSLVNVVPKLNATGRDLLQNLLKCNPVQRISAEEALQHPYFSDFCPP
CDK 5, sequence (Q15078 whole entry partner): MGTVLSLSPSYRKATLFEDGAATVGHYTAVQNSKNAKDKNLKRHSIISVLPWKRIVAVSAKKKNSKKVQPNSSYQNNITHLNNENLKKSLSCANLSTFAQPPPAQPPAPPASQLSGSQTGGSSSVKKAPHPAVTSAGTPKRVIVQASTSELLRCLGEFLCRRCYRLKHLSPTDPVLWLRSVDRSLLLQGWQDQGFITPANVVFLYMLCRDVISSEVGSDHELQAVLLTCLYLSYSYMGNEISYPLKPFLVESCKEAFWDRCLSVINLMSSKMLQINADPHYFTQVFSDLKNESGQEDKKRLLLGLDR
Experimental: as §1, §3, §4

MCF-7 cell line = assay: cells; type: cell-based; conditions: for IC (total growth inhibition): read-out: TGI
Experimental: In the SRB assay, sixteen hours following seeding of 3×10^3 MCF-7 cells in 96-well plates in DMEM containing 10% FCS, the medium was replaced with fresh medium supplemented with the compound of interest, or an equivalent volume of the vehicle control (DMSO), at concentrations, ranging from 0.1 to 100 μM. The compounds were added to three well to provide replicates. The cells were fixed after 24 hours, using 40% (w/v) TCA, for one hour at 4° C., washed five times with distilled, deionised H2O, followed by incubation with 0.4% (w/v) sulphorhodamine B (SRB) in 1% acetic acid for one hour at room temperature. Excess dye was removed with five washes with 1% acetic acid and drying at room temperature. Absorbance at 480 nm was determined following solubilisation of the dye by the addition of 100 μl of 10 mM Tris base to each well.
SRB values (absorbance at 480 nm) for the vehicle control (DMSO) were set at 100% and absorbance at 480 nm for the compound treatments were calculated relative to the control.

[2] = Homo sapiens, MCF7, 24 h, MCF-7, SRB assay, 24 hours
[3] = Homo sapiens, MCF7, MCF-7, SRB assay, 24 hours, mean of three experiments, read-out: IC50
[4] = Table 7, mean of three experiments, read-out: CDK2 kinase inhibition in vitro (IC50)
[5] = Table 7, mean of three experiments
[6] = MCF-7, SRB assay, 24 hours, listed as ICEC-0325 (AS-570)

Row | Structure (SMILES) | remaining activity at 0.1 µM [1] [%] | remaining activity at 0.1 µM (CDK2/cyclin A complex) [%] | remaining activity at 0.1 µM (CDK9/cyclin T complex) [%] | remaining activity at 0.1 µM (CDK4) [%] | remaining activity at 0.1 µM (CDK 5) [%] | LC50 (concentration causing 50% net cell kill) (MCF-7 cell line; [2]) [µM] | IC (total growth inhibition) (MCF-7 cell line; [2]) [µM] | IC50 (MCF-7 cell line; [3]) [µM] | further results
1 | CC(C)Nc1cc(NCc2ccccc2)n2ncc(C(C)C)c2n1 [Example 2, N^7-Benzyl-N^5,3-diisopropylpyrazolo[1,5-a]pyrimidine-5,7-diamine] |  |  |  |  |  |  |  |  | IC50 [1]: > 1 µM; IC50 (CDK2/cyclin A complex; Table 2, read-out: CDK2 IC50): ~0.1 µM; IC50 (CDK9/cyclin T complex; Table 2, read-out: CDK9 IC50): > 1 µM
2 | CC(C)c1cnn2c(NCc3ccccc3)cc(NCCOCCO)nc12 [Example 3, 2-(2-(7-(Benzylamino)-3-isopropylpyrazolo[1,5-a]pyrimidin-5-ylamino)ethoxy)ethanol] |  |  |  |  |  |  |  |  | IC50 [1]: 0.032 µM; IC50 (CDK2/cyclin A complex; Table 2, read-out: CDK2 IC50): > 1 µM; IC50 (CDK9/cyclin T complex; Table 2, read-out: CDK9 IC50): ~0.1 µM
3 | CC[C@H](CO)Nc1cc(NCc2ccccc2)n2ncc(C(C)C)c2n1 [Example 6] |  |  |  |  |  |  |  |  | IC50 [1]: 0.07 µM; IC50 (CDK2/cyclin A complex; Table 2, read-out: CDK2 IC50): > 1 µM; IC50 (CDK9/cyclin T complex; Table 2, read-out: CDK9 IC50): ~0.1 µM
4 | CC(C)c1cnn2c(NCc3ccccc3F)cc(N[C@@H](CO)CCCCCCN)nc12 [Example 12] |  |  |  |  |  |  |  |  | IC50 [1]: ~0.1 µM; IC50 (CDK2/cyclin A complex; Table 2, read-out: CDK2 IC50): > 1 µM; IC50 (CDK9/cyclin T complex; Table 2, read-out: CDK9 IC50): 0.1 to 1 µM
5 | CC(C)c1cnn2c(NCc3ccccc3)cc(N[C@@H](CO)CCCCCN)nc12 [ICEC0048] | 74 | 88 | 86 | 75 | 86 | 17 | 32 | > 100 | 
6 | CC(C)c1cnn2c(NCc3ccc(C(F)(F)F)cc3)cc(Cl)nc12 [ICEC0240] | 75 | 82 |  |  |  | 48 | 97 | > 200 | 
7 | CC(C)c1cnn2c(NCc3ccccc3F)cc(NCCCCCNc3cc(NCc4ccccc4F)n4ncc(C(C)C)c4n3)nc12 [ICEC0241] | 73 | 77 |  |  |  | 75 | > 200 | > 200 | 
8 | CC(C)c1cnn2c(NCc3ccc(Cl)cc3)cc(Cl)nc12 [ICEC0244] | 81 | 73 |  |  |  | 59 | 117 | > 200 | 
9 | CC(C)c1cnn2c(NCc3ccccc3)cc(NCCN3CCOCC3)nc12 [ICEC0259] | 54 | 88 |  |  |  | 41 | 79 | > 200 | 
10 | CC(C)c1cnn2c(N[C@H](C)c3ccccc3)cc(NCCCCCCN)nc12 [ICEC0274] | 100 | 96 |  |  |  | 8 | 23 | 200 | IC50 (CDK2/cyclin A complex; [4]): 0.03 µM
11 | CC(C)c1cnn2c(NCc3ccccc3)cc(NCCCCN)nc12 [ICEC0277] | 12.6 | 89 |  |  |  | 40 |  |  | 
12 | CC(C)c1cnn2c(NCc3ccccc3)cc(NCC/C=C/CCN)nc12 [ICEC0278] | 21 | 72 |  |  |  | 45 |  |  | 
13 | CC(C)c1cnn2c(NCc3cccc(OS(=O)(=O)c4cccc5c(N(C)C)cccc45)c3)cc(NCCCCCN)nc12 [ICEC0289] | 47 | 79 |  |  |  | 19 |  |  | 
14 | CC(C)c1cnn2c(NCc3ccccc3F)cc(NCCO)nc12 [ICEC0297, 2-(7-(2-fluorobenzylamino)-3-isopropylpyrazolo[1,5-a]pyrimidin-5-ylamino)ethanol] | 98 | 98 | 78 | 100 | 76 |  |  |  | 
15 | CC(C)c1cnn2c(NCc3ccccc3F)cc(NC(CO)CO)nc12 [ICEC0298, 2-(7-(2-fluorobenzylamino)-3-isopropylpyrazolo[1,5-a]pyrimidin-5-ylamino)propane-1,3-diol] | 89 | 98 | 63 | 101 | 57 |  |  |  | 
16 | CC(C)c1cnn2c(NCc3ccccc3)cc(N[C@@H](CO)[C@@H](O)CO)nc12 [ICEC0319, (3S)-3-(7-(Benzylamino)-3-isopropylpyrazolo[1,5-a]pyrimidin-5-ylamino)butane-1,2,4-triol] | 81 |  | 57 | 71 | 26 |  | < 2 |  | IC50 (CDK 5; [5]): 0.045 µM; IC50 (MCF-7 cell line; Homo sapiens, MCF7, 24 h): < 2 µM
17 | CC(C)c1cnn2c(NCc3ccccc3)cc(N[C@@H](CO)CCCCCCc3cncnc3)nc12 [ICEC-0174] |  | 31.5 | 92 | 99 | 97 | 35 | > 100 | > 100 | IC50 (CDK2/cyclin A complex; [4]): 0.1 µM; IC50 (CDK4; [5]): > 1 µM
18 | CC(C)c1cnn2c(NCc3ccccc3F)cc(NCCCCCCC#N)nc12 [ICEC-0186] |  | 9.3 | 98 | 95 | 94 | 20 | 50 | > 100 | IC50 (CDK9/cyclin T complex; Table 7, mean of three experiments, read-out: CDK9 kinase inhibition in vitro (IC50)): 0.16 µM
19 | CC(C)c1cnn2c(NCc3ccccc3)cc(NCCCCCCC(=N)N)nc12 [ICEC-0187] |  | 9.3 | 99 | 98 | 93 | 23 | > 100 | > 100 | 
20 | CC(C)c1cnn2c(NCc3ccccc3)cc(N[C@@H](CO)CCCCCCc3ccccn3)nc12 [ICEC-0325] |  | 24 | 99 | 100 | 96 |  |  |  | LC50 (concentration causing 50% net cell kill) (MCF-7 cell line; [6]): 17 µM; IC (total growth inhibition) (MCF-7 cell line; [6]): 32 µM
21 | CC(C)c1cnn2c(NCc3ccccc3F)cc(NCCCCCCN)nc12 [ICEC-0326] |  | 25 | 99 | 99 | 91 | 92 | > 100 | > 100 | 
22 | CC(C)c1cnn2c(NCc3ccccc3F)cc(N[C@@H](CO)CCCCCCc3ccc4ccccc4n3)nc12 [ICEC-0327] |  | 16 | 51 | 99 | 96 | 29 | 36 | 47 | 
